Data reported in publication PMC7571299 (ACS Pharmacology & Translational Science, 2020).
“Also recorded” adds a separate entry of the source. Where two headings read alike, the source gives them in different places.

What was measured:
[1] = system: SARS-CoV-2 Isolate USA-WA1/2020; assay: Vero E6 cell assay; assay type: cell-based
SARS-CoV-2 [2] = assay type: cell-based
Vero E6 cells = conditions: Vero E6, absence of virus, UTHSC
[3] = cited from earlier work
SARS-CoV-2 [4] = conditions: cited from earlier work; for Activity in NCATS CPE experiments: NCATS HTS
SARS-CoV-2 [5] = assay type: cell-based; remark: listed apart in the source

Row | SMILES | Activity in NCATS CPE experiments (SARS-CoV-2 [4]) | Reduction of virus titer (SARS-CoV-2 [5]) | further results
1 | CCNCc1cc(Nc2ccnc3cc(Cl)ccc23)ccc1O [N-monodesethyl amodiaquine] |  |  | Antiviral activity compared to chloroquine [1]: almost inactive; EC50 (SARS-CoV-2 [2]): 4 µM; CC50 (Vero E6 cells): 5.9 µM; half-life [3]: ~20.8 days; half-life ([3]; human, in vivo): over 3 weeks
2 | CN(Cc1cc(Br)cc(Br)c1N)C1CCCCC1 [bromhexine] | found active |  | EC50 (SARS-CoV-2 [4]; read-out: EC50 in CPE assay, NCATS): 13.9 µM
3 | CCN(CC)CCCC(C)Nc1ccnc2cc(Cl)ccc12 (centres unmarked) [chloroquine] |  | did not reduce the virus titer | 
4 | Nc1c(Br)cc(Br)cc1CN[C@H]1CC[C@H](O)CC1 [ambroxol] | low activity | inactive; also recorded: Neither primaquine nor ambroxol were found to reduce the virus titer | 
5 | OCCN1CCN(CC/C=C2/c3ccccc3Sc3ccc(Cl)cc32)CC1 [zuclopenthixol] |  | more than 1 log unit | Peak of activity (SARS-CoV-2 [2]; 8.33 μM, UTHSC): 80%; bioavailability ([3]; listed as ZPX): about 50%
6 | COc1cc(NC(C)CCCN)c2ncccc2c1 (centres unmarked) [primaquine] |  | Neither primaquine nor ambroxol were found to reduce the virus titer | Antiviral activity in dose-response experiment in comparison with chloroquine [1]: no appreciable activity; Antiviral activity at the tested concentrations (SARS-CoV-2 [2]; UTHSC dose response): did not exhibit appreciable activity
7 | OC(CNCC(O)C1CCc2cc(F)ccc2O1)C1CCc2cc(F)ccc2O1 (centres unmarked) [nebivolol] | poor activity | more than 1 log units | 
8 | CCC(CC)COC(=O)[C@H](C)N[P@](=O)(OC[C@H]1O[C@@](C#N)(c2ccc3c(N)ncnn23)[C@H](O)[C@@H]1O)Oc1ccccc1 [remdesivir] |  | 3–4 log units | 
9 | Cc1[nH]c2ccccc2c1CCNCc1ccc(/C=C/C(=O)NO)cc1 [panobinostat] | low activity |  | 
10 | CCN(CC)Cc1cc(Nc2ccnc3cc(Cl)ccc23)ccc1O [amodiaquine] | high activity |  | half-life [3]: 0.12 days
11 | CC(COc1ccccc1)NC(C)C(O)c1ccc(O)cc1 (centres unmarked) [isoxsuprine] | low activity |  | 
12 | O=C(CCCCCCC(=O)Nc1ccccc1)NO [vorinostat] | low activity |  | 
13 | CCCCc1nc2cc(/C=C/C(=O)NO)ccc2n1CCN(CC)CC [pracinostat] | low activity |  | 
14 | O=C(OCC(O)CO)c1ccccc1Nc1ccnc2cc(Cl)ccc12 (centres unmarked) [glafenine] | low activity |  | 
